The values that follow come from patent publication US20230135894A1, “MK2 DEGRADERS AND USES THEREOF” (Kymera Therapeutics, Inc., priority 2021, published 2023).

The target of assay [1] is T1, MK2 (Homo sapiens, UniProt P49137). As to the kind of experiment: MK2 degradation in human THP-1 monocytic cells (MSD, 24 h). Type of assay: cell-based. Details: endogenous in cells. The settings on record: for Dmax: THP-1, THP-1 cells; for DC50: THP-1 cells, read-out: MK2 MSD THP-1 degradation 24 h GMean External Abs DC50. The protocol:
MK2 Degradation in Human THP-1 Monoctyic Cells
(§1) The human monocytic cancer cell line THP-1 (ATCC (TIB-202)) was cultured in 96 well plates (Corning 3894) at a density of 200,000 cells per well in 100 microlitres in complete growth medium of RPMI 1640 (Gibco) pus 10% fetal Bovine Serum (Corning) and Penicillin/Streptomycin (SolarBio) at 37 degrees Celsius and 5% CO2. A serial dilution of each compound (usually 3 to 5 fold serial dilutions up to 10 separate concentration points) was added to individual wells from a 10 millimolar stock solution, at a background concentration of 0.1% DMSO and the cells were shaken at 600 rpm for 5 minutes and then were cultured for 24 hours at 37 degrees Celsius and 5% carbon dioxide. Separately, a custom MSD (MesoScaleDiscovery, L15XA-3) plate for detection of human MK2 was prepared by coating the plate with the commercial AbCam ab247272 reagent in 1×Phosphate Buffered Saline at 40 microlitres per well and incubated at 4 degrees Celsius overnight. The next day, the MSD plate was washed with 150 microlitres of Tween buffered saline, blocked with MSD blocking buffer (3% Blocker A from MSD), and washed again.
(§2) The cell plate was centrifuged at 3,200 g for 5 minutes and the supernatant was discarded and 100 microlitres of RIPA lysis buffer (containing proteinase inhibitors, Boston BioProducts BP-115D) was added and the plate was sealed and shaken on ice for 20 minutes. The plate was centrifuged as before and 70 microlitres of sample lysate was added to the MSD plates and they were shaken at room temperature for 1 hour at 600 rpm. The MSD plate was washed 3 times as before and then the primary MK2 detection antibody (Santa Cruz sc-100393) was added at a final concentration of 1 microgram per ml at 25 microlitres per well and shaken at room temperature for 1 hour at 600 rpm.
(§3) After 3 more washes, the secondary detection antibody (SULFO-Tag anti rabbit antibody R32AB-5) was added at a final concentration of 1 microgram per ml at 25 microlitres per well and shaken at room temperature for 1 hour at 600 rpm. After 3 more washes, the 1×MSD (diluted from 5× concentrate with water) reading buffer was added at 150 microlitres per well and read on the MSD instrument Meso Sector S 600.
(§4) The inhibition/degradation curves and DC50 values were plotted and calculated using XL Fit (version v5.3.1.3) using equation 201 and a 4 parameter logistic model whereby fit=(A+((B−A)/(1+((x/C)D))) where A is the Bottom and B is the Top and C is the IC50 and D is the slope and high C is the signal for the DMSO treated cells and Low C is the signal is the signal for the lysis buffer.

Assay [2] concerns the target T1, MK2. Nature of the assay: MK2 degradation in human SW1353 cells (MSD, 24 h). Type of assay: cell-based. Details: endogenous in cells; host or cells: SW-1353 (ATCC HTB-94). The settings on record: for Dmax: read-out: MK2 MSD SW 1353 24 h Dmax %; for DC50: read-out: MK2 MSD SW1353 degradation 24 h GMean External Abs DC50. The protocol: MK2 Degradation in Human SW1353 Cells
as §1, with “chondrocyte” for “monocytic”, “SW-1353 (ATCC(HTB-94))” for “THP-1 (ATCC (TIB-202))”, “Leibovitz's L-15 Medium” for “RPMI 1640”, “Celsius.” for “Celsius and 5% CO2.”, “Celsius.” for “Celsius and 5% carbon dioxide.”
as §2, §3, §4

T1 sequence (P49137 whole entry): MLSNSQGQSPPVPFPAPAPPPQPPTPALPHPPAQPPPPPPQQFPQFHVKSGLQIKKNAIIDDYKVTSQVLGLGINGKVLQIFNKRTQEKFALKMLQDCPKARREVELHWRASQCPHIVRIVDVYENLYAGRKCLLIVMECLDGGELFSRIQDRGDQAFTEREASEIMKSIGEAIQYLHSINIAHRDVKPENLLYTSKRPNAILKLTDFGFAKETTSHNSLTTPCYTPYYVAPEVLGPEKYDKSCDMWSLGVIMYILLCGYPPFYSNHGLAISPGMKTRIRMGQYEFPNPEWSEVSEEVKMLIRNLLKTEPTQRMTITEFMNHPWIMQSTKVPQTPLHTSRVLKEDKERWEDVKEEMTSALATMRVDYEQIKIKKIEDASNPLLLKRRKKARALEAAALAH

For the compound `CN1CC2(CNC(=O)c3c2[nH]c2c3CCc3cnc(-c4ccc(CN5CCC(OCC#Cc6ccc7c(c6)n(C)c(=O)n7C6CCC(=O)NC6=O)CC5)cc4F)cc3-2)C1` (stereo not shown) [Compound I-1], on MK2 [1], the Dmax was less than 50% and the DC50 is more than 100 nM. For the same compound, on MK2 [2], the Dmax is less than 50% and the DC50 is more than 100 nM.
Regarding `CN1CC2(CNC(=O)c3c2[nH]c2c3CCc3cnc(-c4ccc(CN5CCC(OCC#Cc6cccc7c6n(C)c(=O)n7C6CCC(=O)NC6=O)CC5)cc4F)cc3-2)C1` (stereo not shown) [Compound I-2], at MK2 [1], the Dmax is less than 50% and the DC50 was more than 100 nM. In addition, on MK2 [2], the Dmax was less than 50% and the DC50 is more than 100 nM.
On to `C[C@@H]1CNc2c(sc3ccc4nc(-c5cccc(N6CCN(C(=O)COCCOCCc7cccc8c7n(C)c(=O)n8C7CCC(=O)NC7=O)CC6)c5)ccc4c23)C(=O)N1` (stereo partly shown) [Compound I-34], for which the Dmax at MK2 [1] and at MK2 [2] was more than 75% each time. Besides, the DC50 at MK2 [1] and at MK2 [2] was less than 1 nM throughout.
With `C[C@@H]1CNc2c(sc3ccc4nc(-c5cccc(N6CCN(C(=O)COCCOCCOCCOCCc7ccc8c(c7)n(C)c(=O)n8C7CCC(=O)NC7=O)CC6)c5)ccc4c23)C(=O)N1` (stereo partly shown) [Compound I-36], the Dmax at MK2 [1] and on MK2 [2] was more than 75% throughout. In addition, the DC50 at MK2 [1] and at MK2 [2] was 1 to 10 nM each time.
As for `C[C@@H]1CNc2c(sc3ccc4nc(-c5ccc(N6CCN(C(=O)COCCOCCOCCOCCc7ccc8c(c7)n(C)c(=O)n8C7CCC(=O)NC7=O)CC6)cc5)ccc4c23)C(=O)N1` (stereo partly shown) [Compound I-43], the Dmax on MK2 [1] and at MK2 [2] was more than 75% throughout. Further, the DC50 at MK2 [1] and at MK2 [2] was less than 1 nM each time.
Take `C[C@@H]1CNc2c(sc3ccc4nc(-c5cccc(C#CCCNC(=O)CCCCCCCCCc6ccc7c(c6)n(C)c(=O)n7C6CCC(=O)NC6=O)c5)ccc4c23)C(=O)N1` (stereo partly shown) [Compound I-45]: on MK2 [1], the Dmax was more than 75% and the DC50 was 10 to 100 nM. Also, at MK2 [2], the Dmax was more than 75% and the DC50 was in the range of 10 to 100 nM.
As for `C[C@@H]1CNc2c(sc3ccc4nc(-c5cccc(C#CCCNC(=O)CCCCCCCc6cccc7c6n(C)c(=O)n7C6CCC(=O)NC6=O)c5)ccc4c23)C(=O)N1` (stereo partly shown) [Compound I-48], the Dmax on MK2 [1] and at MK2 [2] was more than 75% in each case. Also, the DC50 on MK2 [1] was 10 to 100 nM; on MK2 [2] it was 1 to 10 nM.
Regarding `C[C@@H]1CNc2c(sc3ccc4nc(-c5cccc(C#CCCNC(=O)COCCOCCc6ccc7c(c6)n(C)c(=O)n7C6CCC(=O)NC6=O)c5)ccc4c23)C(=O)N1` (stereo partly shown) [Compound I-49], at MK2 [1], the Dmax is more than 75% and the DC50 lay within 1 to 10 nM. On MK2 [2], the Dmax was more than 75% and the DC50 was 1 to 10 nM.
Take `C[C@@H]1CNc2c(sc3ccc4nc(-c5cccc(C#CCNC(=O)COCCOCCc6cccc7c6n(C)c(=O)n7C6CCC(=O)NC6=O)c5)ccc4c23)C(=O)N1` (stereo partly shown) [Compound I-50]: at MK2 [1], the Dmax is more than 75% and the DC50 is 1 to 10 nM. For the same compound, on MK2 [2], the Dmax was more than 75% and the DC50 lay within 1 to 10 nM.
Turning to `C[C@@H]1CNc2c(sc3ccc4nc(-c5cccc(C#CCCNC(=O)COCCOCCOCCOCCc6ccc7c(c6)n(C)c(=O)n7C6CCC(=O)NC6=O)c5)ccc4c23)C(=O)N1` (stereo partly shown) [Compound I-51], the Dmax on MK2 [1] and at MK2 [2] was more than 75% in each case. Further, the DC50 on MK2 [1] and on MK2 [2] was 1 to 10 nM in each case.
With `C[C@@H]1CNc2c(sc3ccc4nc(-c5ccc(C#CCCNC(=O)CCCCCCCCCc6ccc7c(c6)n(C)c(=O)n7C6CCC(=O)NC6=O)cc5)ccc4c23)C(=O)N1` (stereo partly shown) [Compound I-53], at MK2 [1], the Dmax was in the range of 50 to 75% and the DC50 was in the range of 10 to 100 nM. Further, on MK2 [2], the Dmax is more than 75% and the DC50 fell in the range of 10 to 100 nM.
In the case of `C[C@@H]1CNc2c(sc3ccc4nc(-c5ccc(C#CCCNC(=O)CCCCCCCCCc6cccc7c6n(C)c(=O)n7C6CCC(=O)NC6=O)cc5)ccc4c23)C(=O)N1` (stereo partly shown) [Compound I-54], on MK2 [1], the DC50 lay in the range of 10 to 100 nM. Besides, the Dmax at MK2 [2] was more than 75%.
With `C[C@@H]1CNc2c(sc3ccc4nc(-c5ccc(C#CCCNC(=O)CCCCCCCc6ccc7c(c6)n(C)c(=O)n7C6CCC(=O)NC6=O)cc5)ccc4c23)C(=O)N1` (stereo partly shown) [Compound I-55], at MK2 [1], the Dmax is more than 75% and the DC50 fell in the range of 1 to 10 nM. In addition, on MK2 [2], the Dmax is more than 75% and the DC50 fell in the range of 1 to 10 nM.
On to `C[C@@H]1CNc2c(sc3ccc4nc(-c5ccc(CNC(=O)CCCCCCCCCc6cccc7c6n(C)c(=O)n7C6CCC(=O)NC6=O)cc5)ccc4c23)C(=O)N1` (stereo partly shown) [Compound I-86], for which, on MK2 [1], the Dmax was more than 75% and the DC50 fell in the range of 1 to 10 nM. On MK2 [2], the Dmax is more than 75% and the DC50 was 1 to 10 nM.
In the case of `C[C@@H]1CNc2c(sc3ccc4nc(-c5ccc(CNC(=O)CCCCCCCc6ccc7c(c6)n(C)c(=O)n7C6CCC(=O)NC6=O)cc5)ccc4c23)C(=O)N1` (stereo partly shown) [Compound I-87], the Dmax on MK2 [1] and on MK2 [2] was more than 75% in each case. The DC50 at MK2 [1] and at MK2 [2] was 1 to 10 nM in each case.
Take `C[C@@H]1CNc2c(sc3ccc4nc(-c5ccc(CNC(=O)CCCCCCCc6cccc7c6n(C)c(=O)n7C6CCC(=O)NC6=O)cc5)ccc4c23)C(=O)N1` (stereo partly shown) [Compound I-88]: at MK2 [1], the Dmax is more than 75% and the DC50 was in the range of 1 to 10 nM. Moreover, at MK2 [2], the Dmax was more than 75% and the DC50 was 1 to 10 nM.
With `C[C@@H]1CNc2c(sc3ccc4nc(-c5ccc(CNC(=O)COCCOCCOCCOCCc6cccc7c6n(C)c(=O)n7C6CCC(=O)NC6=O)cc5)ccc4c23)C(=O)N1` (stereo partly shown) [Compound I-92], at MK2 [1], the Dmax was more than 75% and the DC50 is 1 to 10 nM. Also, on MK2 [2], the Dmax is more than 75% and the DC50 was in the range of 1 to 10 nM.
Take `C[C@@H]1CNc2c(sc3ccc4nc(-c5cccc(N6CCN(CCCc7cccc8c7n(C)c(=O)n8C7CCC(=O)NC7=O)CC6)c5)ccc4c23)C(=O)N1` (stereo partly shown) [Compound I-93]: the Dmax at MK2 [1] and on MK2 [2] was more than 75% throughout. The DC50 at MK2 [1] was less than 1 nM; at MK2 [2], 1 to 10 nM.
As for `C[C@@H]1CNc2c(sc3ccc4nc(-c5cccc(N6CCN(CCCCCc7cccc8c7n(C)c(=O)n8C7CCC(=O)NC7=O)CC6)c5)ccc4c23)C(=O)N1` (stereo partly shown) [Compound I-94], at MK2 [1], the Dmax is more than 75% and the DC50 is less than 1 nM. On MK2 [2], the Dmax was more than 75% and the DC50 lay in the range of 1 to 10 nM.
`C[C@@H]1CNc2c(sc3ccc4nc(-c5cccc(N6CCN(CCCCCCCc7cccc8c7n(C)c(=O)n8C7CCC(=O)NC7=O)CC6)c5)ccc4c23)C(=O)N1` (stereo partly shown) [Compound I-95]: the Dmax at MK2 [1] and at MK2 [2] was more than 75% throughout. Also, the DC50 at MK2 [1] is less than 1 nM; on MK2 [2], 1 to 10 nM.
As to `C[C@@H]1CNc2c(sc3ccc4nc(-c5cccc(N6CCC(CN7CCC(c8cccc9c8n(C)c(=O)n9C8CCC(=O)NC8=O)CC7)CC6)c5)ccc4c23)C(=O)N1` (stereo partly shown) [Compound I-96], the Dmax on MK2 [1] and on MK2 [2] was more than 75% in each case. Also, the DC50 on MK2 [1] was less than 1 nM; at MK2 [2] it was 1 to 10 nM.

As usually defined, the Dmax is the greatest extent of degradation seen. One may read the DC50 as the concentration at which degradation of the target reaches its halfway point.
